Source: patent US11753386B2, “Processes for preparing a MDM2 inhibitor” (Amgen, Inc., priority 2018, dated 2023)

Experiments:
Format in all cases: physicochemical
[1] = Solubility in acetonitrile/water (9/1 volume ratio); details: organic solvent or mixture, 10° C.
[2] = Supernatant concentration at end of crystallization; details: 20° C.
Method: Cooling to 20° C. in 2 hours prompts another 60% of the material to crystallize. Four volumes of heptane are subsequently added to lower the supernatant concentration to approximately 5 mg/mL in preparation for batch filtration.
A curve showing solubility values at different time points in the crystallization process is represented in FIG. 16. […] One volume of water is subsequently added to lower the supernatant concentration to approximately 5 mg/mL in preparation for a rapid batch filtration. Three water washings (3×10 volumes) were conducted to minimize the presence of residual acetic acid in the isolated material.

[3] = Particle size distribution pre and post dry-milling
[4] = Equilibrium solubility measurements for DHO in various solvents; details: thermodynamic from solid, 20° C.
Method: Equilibrium solubility measurements were gathered for DHO in various solvents. It was observed that all values obtained were above 20 mg/mL at 20° C. (including heptane) except for water (<0.1 mg/mL), which was thus selected as an anti-solvent. […] Using this protocol, crystalline DHO was isolated in 88% yield from DLAC in a >98 LC area % (Scheme 9).

[5] = milled (Pallman Universal Mill)

CC(C)[C@@H](CS(=O)(=O)C(C)C)N1C(=O)[C@@](C)(CC=O)C[C@H](c2cccc(Cl)c2)C1c1ccc(Cl)cc1 (stereo partly drawn) [ALD] gave a solubility [1] of 21 mg/mL.

With CC(C)[C@@H](CS(=O)(=O)C(C)C)N1C(=O)[C@@](C)(CC(=O)O)CC(c2cccc(Cl)c2)C1c1ccc(Cl)cc1 (stereo partly drawn) [Compound 232-DAB] the Supernatant concentration ([2]; isopropyl acetate (4 volumes) / heptane (4 volumes)) was “approximately 5 mg/mL”.

For CC(C)[C@@H](CS(=O)(=O)C(C)C)N1C(=O)[C@@](C)(CC(=O)O)C[C@H](c2cccc(Cl)c2)[C@H]1c1ccc(Cl)cc1 [Compound A, 2-((3R,5R,6S)-5-(3-chlorophenyl)-6-(4-chlorophenyl)-1-((S)-1-(isopropylsulfonyl)-3-methylbutan-2-yl)-3-methyl-2-oxopiperidin-3-yl)acetic acid], the Supernatant concentration ([2]; acetic acid (6.6 volumes) / water (4.4 + 1 volumes)) was “approximately 5 mg/mL”, the d10 [3, 5] was 3.2 μm and the d50 [3, 5] was 19.1 μm. It also gave a d90 [3, 5] of 43.7 μm, a d10 ([3]; unmilled) of 14.6 μm and a d50 ([3]; unmilled) of 42.5 μm. For the same compound, the d90 ([3]; unmilled) was 102 μm.

In the case of C=CC[C@@](C)(C[C@H](c1cccc(Cl)c1)[C@@H](O)c1ccc(Cl)cc1)C1=N[C@@H](C(C)C)CO1 [DHO, (1R,2R,4S)-2-(3-chlorophenyl)-1-(4-chlorophenyl)-4-((S)-4-isopropyl-4,5-dihydrooxazol-2-yl)-4-methylhept-6-en-1-ol], the solubility thermodynamic ([4]; organic solvent or mixture, various solvents (including heptane) except water) is reported as > 20 mg/mL and the solubility thermodynamic ([4]; water) is reported as < 0.1 mg/mL.

C=CC[C@@]1(C)C[C@H](c2cccc(Cl)c2)[C@@H](c2ccc(Cl)cc2)N([C@H](CS(=O)(=O)C(C)C)C(C)C)C1=O [SUL, (3S,5R,6S)-3-allyl-5-(3-chlorophenyl)-6-(4-chlorophenyl)-1-((S)-1-(isopropylsulfonyl)-3-methylbutan-2-yl)-3-methylpiperidin-2-one] gave a solubility [1] of 25 mg/mL.
